Results reported in patent US11523986B2, “Intranasally administered antihistamines and uses thereof” (priority 2019, dated 2022).

Key:
in vitro = details: human, DPBS pH 7.4, 120 min, 37° C., diphenhydramine 100 μM, atenolol 100 μM, caffeine 50 μM co-dosed
Experimental: (§1) EpiAirway™ tissues, plated in 24-well plates, and accompanying culture medium and assay buffer solutions, were purchased from MatTek Corporation (Ashland, Mass.). According to the EpiAirway™ AIR-100 Use Protocol provided by MatTek, the tissues were returned to culture immediately upon receipt. In a tissue culture hood, using sterile technique, 1.0 mL of cold medium (AIR-100-ASY) was dispensed into each well of the 6-well plate (n=3) and one tissue insert was transferred to each of the wells. The apical surface of the tissue was exposed to the air (no medium was added to the insert). The tissues were equilibrated overnight at 37° C. in a 5% CO2 incubator. The culture medium was then replaced with fresh, pre-warmed medium until use.
(§2) The unidirectional permeation experiment was conducted according to protocol 18APCIP2 and relevant SOPs of Absorption Systems. Prior to the permeability assay, the culture medium in the plate was aspirated; and ˜1 mL of Dulbecco's phosphate-buffered saline (DPBS) was added to the well to remove any remaining residue of culture medium from the underside of the insert. The tissues were transferred to a 24-well plate with DPBS (750 μL) in each well as receiver, and dosing solution (400 μL) was added to each insert. A 100 μL aliquot was immediately removed as the 0-minute donor sample. Receiver samples (200 μL) were collected at 30, 60, and 120 minutes, replaced with an equal volume of fresh pre-warmed blank buffer at 30 and 60 minutes. The donor side was sampled (100 μL) at 0 and 120 minutes. The assay plate was placed in a humidified CO2 incubator at 37° C. during the assay period.
(§3) After 120 minutes, the tissues were rinsed with DPBS and gently dried with tissue wipes after aspiration of the assay buffer. The insert membranes with tissues attached were carefully removed from the insert apparatus, placed in a tared centrifuge tube, and weighed.
(§4) The apparent permeability coefficient (Papp) and recovery were calculated as follows: Papp=(dCr/dt)×Vr/(A×Cini) (1) Recovery (%)=[((Cr,final×Vr)+(Cd,final×Vd))/(Cini×Vd)]×100 (2) Recovery (%)=[((Cr,final×Vr)+(Cd,final×Vd)+(Tissue Accumulation))/(Cini×Vd)]×100 (3)
(§5) where, • dCr/dt is the slope of cumulative receiver concentration vs. time in μM s^−1; • Vr is the volume of the receiver compartment; • Vd is the volume of the donor compartment; • A is the diffusional area of the membrane; • Cini is the donor concentration at 0 minutes in μM; • CD, final is the donor concentration at 120 minutes in μM; • Cr, final is the receiver concentration at 120 minutes in μM.
(§6) With DPBS, pH 7.4 used on both the donor and receiver sides, permeability was initiated with addition of 0.4 mL of dosing solution into the inserts and of 0.75 mL of blank buffer into the wells of the assay plate. The assay was performed for 120 minutes in a humidified incubator at 37° C.

EpiAirway tissues = EpiAirway tissues after 120 min, 100 μM
Experimental: as §1, §2, §3, §4, §5, §6

rhinovirus colds = details: intranasal, phosphate buffer vehicle, patients; Gaffney et al. 1987; cited from earlier work

| Structure (SMILES) | Papp A→B at 120 min (in vitro; pH 7.4, Papp (10^−6 cm/s) Average ± SD, apical dosing, average) [×10⁻⁶ cm/s] | Papp A→B at 120 min (in vitro; pH 7.4, Papp (10^−6 cm/s) R1, apical dosing, replicate R1) [×10⁻⁶ cm/s] | Papp A→B at 120 min (in vitro; pH 7.4, Papp (10^−6 cm/s) R2, apical dosing, replicate R2) [×10⁻⁶ cm/s] | Papp A→B at 120 min (in vitro; pH 7.4, Papp (10^−6 cm/s) R3, apical dosing, replicate R3) [×10⁻⁶ cm/s] | Tissue Accumulation (nmol/mg) Average ± SD (EpiAirway tissues; average) [nmol/mg] | Tissue Accumulation (nmol/mg) R1 (EpiAirway tissues; replicate R1) [nmol/mg] | Tissue Accumulation (nmol/mg) R3 (EpiAirway tissues; replicate R3) [nmol/mg] | therapeutic effect in reducing signs and symptoms of rhinovirus colds (rhinovirus colds) |
| --- | --- | --- | --- | --- | --- | --- | --- | --- |
| Cn1c(=O)c2c(ncn2C)n(C)c1=O [Caffeine, caffeine] | 29.1 | 30.9 | 28.2 | 28.2 | – | – | – | – |
| CN(C)CCOC(c1ccccc1)c1ccccc1 [Diphenhydramine, diphenhydramine] | – | – | – | – | 0.212 ± 0.0222 | 0.188 | 0.218 | no therapeutic effect |
